We go through eleven molecules from ChEMBL document CHEMBL1201862, “PubChem BioAssay data set” (2004).

Molecules are shown by their SMILES.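 Exposure lasted 48 hours, with cells grown in 96-well plates and compounds tested at five concentrations. Here, GI50 denotes the concentration required for 50% inhibition of growth.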 The source made the active and inactive calls. Cut-off read from the data, not from the text of the source: active = GI50 up to about 1.1 µM and inactive = higher.

Assay in all cases: NCI anticancer screen, dose series, 48 h
The test system of assay [1] is K562.
The test system of assay [2] is MDA-N.
Assay [3] relates to HL-60.
For assay [4], the system named is U-251.
Assay [5] relates to NCI/ADR-RES.
Assay [6] concerns SK-MEL-28.
For assay [7], the system named is SF-268.
Assay [8] has as its system KM12.
The subject of assay [9] is MCF7.
In assay [10] the test system is SK-OV-3.
Assay [11] concerns NCI-H23.
In assay [12] the test system is NCI-H522.
Assay [13] has as its system OVCAR-5.
The subject of assay [14] is RXF 393.
Assay [15] relates to CAKI-1.
The subject of assay [16] is OVCAR-4.
In assay [17] the test system is HCT-15.
Assay [18] deals with DU-145.
In assay [19] the test system is MDA-MB-231.
Assay [20] has as its system UO-31.

Take `CCCCNc1c(CN)cnc2cc(Cl)ccc12`: the GI50 in assay [1] is 13.9 µM (inactive); in assay [2], 16.1 µM (inactive); in assay [3], 0.394 µM (active); in assay [4] it was 16.4 µM (inactive); in assay [5], 16.2 µM (inactive); in assay [6], 15.6 µM (inactive). Moreover, the GI50 in assay [7] was 23.6 µM (inactive); in [8] it was 15.5 µM (inactive); in assay [9] it was 14.5 µM (inactive); in assay [10], 14.3 µM (inactive); in [11], 19.3 µM (inactive); in assay [12], 18.8 µM (inactive). Besides, the GI50 in assay [13] is 16.6 µM (inactive); in [14], 14.5 µM (inactive); in [15] it was 21.1 µM (inactive); in assay [16], 16.6 µM (inactive); in assay [17], 17.1 µM; in assay [18], 28.1 µM (inactive). Moreover, the GI50 in assay [19] was 15.3 µM (inactive).

In the case of `O=c1[nH]c(=O)n(COCCO)c2ccsc12`, the GI50 in assay [1], in assay [2], in assay [3], in [4], in assay [5] and in assay [6] was > 100 µM (inactive) each time. Also, the GI50 in [7], in assay [8], in [9], in assay [11], in assay [12] and in assay [13] was > 100 µM (inactive) throughout. The GI50 in [14] is > 100 µM (inactive); in [20], > 100 µM (inactive); in assay [15] it was > 100 µM (inactive); in [16], > 100 µM (inactive); in assay [17] it was more than 100 µM; in assay [18] it was > 100 µM (inactive). The GI50 in assay [19] was > 100 µM (inactive).

On to `CC1(C)OCC(C2OC(On3nnc4ccc(Cl)cc43)C3OC(C)(C)OC23)O1` (stereo not drawn), for which the GI50 in assay [1] is 22.4 µM (inactive); in assay [2] it was > 100 µM (inactive); in assay [3], > 100 µM (inactive); in [4], > 100 µM (inactive); in assay [5], > 100 µM (inactive); in assay [6], > 100 µM (inactive). In addition, the GI50 in [7], in assay [8], in [9], in [10], in assay [11] and in assay [12] was > 100 µM (inactive) throughout. Besides, the GI50 is > 100 µM (inactive) in assay [13]; > 100 µM (inactive) in assay [14]; > 100 µM (inactive) in assay [15]; > 100 µM (inactive) in assay [16]; more than 100 µM in [17]; > 100 µM (inactive) in [18]. The GI50 in assay [19] is > 100 µM (inactive).

For `Cc1nn(C(=O)c2ccc(Cl)cc2)c2c1C(c1ccccc1)SC(=N)N2` (stereo not drawn), the GI50 in [1], in assay [2], in assay [3], in assay [4], in [5] and in [6] was > 10 µM (inactive) each time. The GI50 in assay [7], in assay [8], in assay [9], in assay [10], in assay [11] and in assay [12] was > 10 µM (inactive) in each case. The GI50 in assay [13] was > 10 µM (inactive); in assay [14], > 10 µM (inactive); in [15], > 10 µM (inactive); in [16], > 10 µM (inactive); in assay [17], more than 10 µM; in [18], > 10 µM (inactive). For the same molecule, the GI50 in assay [19] was > 10 µM (inactive).

As to `CN(CCCCN1CCCC1)CCCN(C)C(=O)Cc1ccc(Cl)c(Cl)c1`, the GI50 was 3.05 µM (inactive) in [1]; 4.27 µM (inactive) in assay [2]; 15.3 µM (inactive) in assay [3]; 16 µM (inactive) in assay [4]; > 100 µM (inactive) in assay [5]; 1.79 µM (inactive) in [6]. The GI50 in assay [7] was 26.7 µM (inactive); in assay [8], 12.5 µM (inactive); in assay [9] it was 17.4 µM (inactive); in assay [10], 33.3 µM (inactive); in [11], 18 µM (inactive); in assay [12], 13.1 µM (inactive). The GI50 in assay [13] is 29.6 µM (inactive); in assay [14], 12.7 µM (inactive); in assay [20] it was 1.95 µM (inactive); in [15] it was 21.1 µM (inactive); in assay [16], 20 µM (inactive); in assay [17], 27.3 µM. Besides, the values for the GI50 in assay [18] and in [19] were 37.1 µM (inactive) and 10.2 µM (inactive), respectively.

Take `CC1=Nc2ccccc2OC(C)=C1/N=N/c1ccc2[nH]c(C)nc2c1`: the GI50 in assay [1], in assay [2], in assay [3], in assay [4], in assay [5] and in assay [6] was > 100 µM (inactive) throughout. Further, the GI50 in [7] is > 100 µM (inactive); in assay [8], > 100 µM (inactive); in assay [9], 45.8 µM (inactive); in [10], > 100 µM (inactive); in [11], > 100 µM (inactive); in assay [12], > 100 µM (inactive). Moreover, the GI50 in [13] is > 100 µM (inactive); in assay [14] it was 56.1 µM (inactive); in assay [15], 47.1 µM (inactive); in assay [16], > 100 µM (inactive); in [17] it was more than 100 µM; in [18], > 100 µM (inactive). The GI50 in [19] was > 100 µM (inactive).

As for `COc1cc(Nc2nc3cc(C(F)(F)F)ccc3nc2C(=O)O)cc(OC)c1OC`, the GI50 was 33.3 µM (inactive) in [2]; 55.2 µM (inactive) in assay [3]; 36.6 µM (inactive) in [4]; 41.7 µM (inactive) in [5]; 69.2 µM (inactive) in assay [6]; 43.9 µM (inactive) in [7]. For the same molecule, the GI50 in assay [8] was 41.5 µM (inactive); in assay [9], 66.5 µM (inactive); in [11] it was 45.1 µM (inactive); in [12] it was 30.9 µM (inactive); in assay [13] it was > 100 µM (inactive); in assay [14], 28.9 µM (inactive). Besides, the GI50 was 42.7 µM (inactive) in assay [20]; 30.7 µM (inactive) in [15]; > 100 µM (inactive) in [16]; 39.6 µM in [17]; 35.1 µM (inactive) in assay [18]; 21.8 µM (inactive) in assay [19].

As for `CC(=O)Nc1ccccc1SCCSSCCSc1ccccc1NC(C)=O`, the GI50 in assay [1] is 28.6 µM (inactive); in [2], 25.4 µM (inactive); in assay [3] it was 17.4 µM (inactive); in [4] it was 26.5 µM (inactive); in [5], 31.8 µM (inactive); in assay [7], 38.2 µM (inactive). The GI50 in assay [8] was 40.1 µM (inactive); in assay [9] it was 38.9 µM (inactive); in assay [10] it was 27.8 µM (inactive); in assay [11], 30.1 µM (inactive); in assay [12] it was 16.8 µM (inactive); in assay [13], 31.5 µM (inactive). In addition, the GI50 in assay [14] is 34.2 µM (inactive); in [20], 17.8 µM (inactive); in [15], 20.8 µM (inactive); in assay [16], 22.6 µM (inactive); in assay [17], 20.7 µM; in assay [18], 25.6 µM (inactive). Also, the GI50 in assay [19] was 32.3 µM (inactive).

For `N=C(CSS(=O)(=O)O)NC1CC2CCC1C2` (stereo not drawn), the GI50 in assay [1] was 98.6 µM (inactive); in [2] it was > 100 µM (inactive); in assay [3], > 100 µM (inactive); in assay [4], 57.8 µM (inactive); in assay [5], > 100 µM (inactive); in assay [6] it was > 100 µM (inactive). Further, the GI50 in assay [7], in assay [8], in assay [9], in assay [10], in assay [11] and in assay [12] was > 100 µM (inactive) throughout. The GI50 in [14] is > 100 µM (inactive); in assay [15], > 100 µM (inactive); in [16], > 100 µM (inactive); in assay [17], more than 100 µM; in assay [18] it was > 100 µM (inactive); in assay [19], > 100 µM (inactive).

`Oc1ccc(SCc2cc(O)c(O)c(O)c2)cc1`: the GI50 in [1] is 13.2 µM (inactive); in assay [2] it was > 10 µM (inactive); in assay [3], 34.4 µM (inactive); in assay [4] it was 37.1 µM (inactive); in assay [5] it was 19.7 µM (inactive); in assay [6], 92.9 µM (inactive). Also, the GI50 in assay [7] is > 100 µM (inactive); in assay [8], 20.3 µM (inactive); in assay [9], 20.4 µM (inactive); in assay [10], 65.9 µM (inactive); in assay [11] it was 41.4 µM (inactive); in assay [12] it was 22 µM (inactive). Moreover, the GI50 in assay [13] was 22.4 µM (inactive); in assay [14], 89.3 µM (inactive); in assay [20] it was 24.8 µM (inactive); in [15] it was 39.6 µM (inactive); in assay [17], 39.9 µM; in assay [18], 56.5 µM (inactive). For the same molecule, in [19], the GI50 was 36.4 µM (inactive).

For `O=C([O-])C(O)C(O)C(=O)O.[K+]` (stereo not drawn) [POTASSIUM HYDROGENTARTRATE], the GI50 in [1], in [2], in [3], in [4], in [5] and in assay [6] was > 100 µM (inactive) in each case. The GI50 in assay [7], in [8], in assay [9], in [10], in assay [12] and in assay [13] was > 100 µM (inactive) each time. For the same molecule, the GI50 in assay [14] was > 100 µM (inactive); in assay [20] it was > 100 µM (inactive); in [15], > 100 µM (inactive); in [16], > 100 µM (inactive); in assay [17], more than 100 µM; in assay [18] it was > 100 µM (inactive). For the same molecule, the GI50 in assay [19] was > 100 µM (inactive).
